Measured values published in publication PMC4757417, “Functional and Structural Analysis of a β-Glucosidase Involved in β-1,2-Glucan Metabolism in Listeria innocua” (PLoS ONE, 2016).
Like-named read-outs stand apart in the source and are kept apart here.

What was measured:
Lin1840r [1] = molecular target: T1, Lin1840r (Listeria innocua, UniProt Q92AS9); assay: Inhibition kinetics of hydrolytic activity toward pNP-β-Glc; assay type: biochemical; details: substrate pNP-β-Glc
[2] = molecular target: Aspergillus aculeatus BGL1 (AaBGL1); design: method as in PMID 23537284; details: cited from earlier work
Lin1840r [3] = molecular target: T1, Lin1840r; assay: Kinetic analysis of hydrolysis of β-linked gluco-oligosaccharides and pNP-β-Glc by WT Lin1840r; assay type: biochemical; details: for specific activity: Lin1840r, 0.1 mM substrate at 20°C; for kcat relative to those for Sop2 and Lam2 / kcat/Km relative to that for Sop2 / kcat relative to that for Sop2: WT Lin1840r
[4] = system: JMB19063 (metagenomic GH3 β-glucosidase from compost); design: method as in PMID 23580647; details: 0.1 mM substrate, Cel2 at 50°C, estimated from the substrate consumption; cited from earlier work
[5] = system: Flavobacterium meningosepticum GH3 β-glucosidase (FmBGL); design: method as in PMID 11851422; details: cited from earlier work
Lin1840r D270A mutant = assay: Hydrolytic activity of D270A mutant toward pNP-β-Glc
Lin1840r E473A mutant = assay: Hydrolytic activity of E473A mutant toward pNP-β-Glc

T1 sequence (Q92AS9 entry or part of it): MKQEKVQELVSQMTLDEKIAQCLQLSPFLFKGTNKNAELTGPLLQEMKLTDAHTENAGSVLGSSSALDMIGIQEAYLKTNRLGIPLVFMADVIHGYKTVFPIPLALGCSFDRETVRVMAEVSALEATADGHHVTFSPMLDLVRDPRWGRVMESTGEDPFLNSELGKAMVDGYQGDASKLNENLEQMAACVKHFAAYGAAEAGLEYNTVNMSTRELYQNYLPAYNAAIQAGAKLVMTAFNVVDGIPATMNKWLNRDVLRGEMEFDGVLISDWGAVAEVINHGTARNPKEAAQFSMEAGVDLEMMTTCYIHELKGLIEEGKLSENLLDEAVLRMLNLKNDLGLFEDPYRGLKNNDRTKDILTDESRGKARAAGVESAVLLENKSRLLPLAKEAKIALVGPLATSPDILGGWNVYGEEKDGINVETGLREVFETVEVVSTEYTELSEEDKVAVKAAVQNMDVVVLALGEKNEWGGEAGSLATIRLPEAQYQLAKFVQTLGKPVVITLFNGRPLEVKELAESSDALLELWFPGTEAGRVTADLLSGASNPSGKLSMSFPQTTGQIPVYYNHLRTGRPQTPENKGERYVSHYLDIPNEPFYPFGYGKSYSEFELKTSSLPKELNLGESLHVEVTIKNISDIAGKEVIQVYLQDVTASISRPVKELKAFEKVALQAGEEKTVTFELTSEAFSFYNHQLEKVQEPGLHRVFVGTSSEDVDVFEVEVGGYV

## OC[C@H]1NC[C@H](O)[C@@H](O)[C@@H]1O [DNJ, 1-deoxynojirimycin]
Lin1840r [1]; Ki
  Ki: 290 µM
[2]
  Ki: 2.4 µM

## O=[N+]([O-])c1ccc(O[C@@H]2O[C@H](CO)[C@@H](O)[C@H](O)[C@H]2O)cc1 [pNP-β-Glc, p-nitrophenyl-β-D-glucopyranoside]
Lin1840r [3]
  specific activity: 1.12 U/mg
[4]
  specific activity: 11.8 U/mg
[5]
  Km: 490 µM
  kcat: 39.1 s⁻¹
Lin1840r D270A mutant
  hydrolytic activity: no detectable hydrolytic activity
Lin1840r E473A mutant
  hydrolytic activity: no detectable hydrolytic activity

## gentiobiose [Gen2]
Lin1840r [3]
  kcat relative to those for Sop2 and Lam2: less than 1%
  kcat/Km relative to that for Sop2: less than 0.05%

## OC[C@H]1CNC[C@@H](O)[C@@H]1O [IFG, isofagomine D-tartrate]
Lin1840r [1]; read-out: Ki
  Ki: 4.1 µM
[2]
  Ki: 14 µM

## cellobiose [Cel2]
Lin1840r [3]
  specific activity: 8.9 × 10^−4 U/mg
  kcat relative to those for Sop2 and Lam2: less than 1%
  kcat/Km relative to that for Sop2: less than 0.05%
[4]
  specific activity: 0.077 U/mg
[5]; judged from preliminary results
  activity lower than toward pNP-β-Glc: at least 100 times

## OC[C@H]1O[C@@H](O[C@H]2[C@H](O[C@H]3[C@H](O[C@H]4C(O)O[C@H](CO)[C@@H](O)[C@@H]4O)O[C@H](CO)[C@@H](O)[C@@H]3O)O[C@H](CO)[C@@H](O)[C@@H]2O)[C@H](O)[C@@H](O)[C@@H]1O (stereo partly shown) [Sop4]
Lin1840r [3]
  kcat relative to that for Sop2: less than one-tenth

## OC[C@H]1O[C@@H](O[C@H]2[C@H](O[C@H]3[C@H](O[C@H]4[C@H](O[C@H]5C(O)O[C@H](CO)[C@@H](O)[C@@H]5O)O[C@H](CO)[C@@H](O)[C@@H]4O)O[C@H](CO)[C@@H](O)[C@@H]3O)O[C@H](CO)[C@@H](O)[C@@H]2O)[C@H](O)[C@@H](O)[C@@H]1O (stereo partly shown) [Sop5]
Lin1840r [3]
  kcat relative to that for Sop2: less than one-tenth
